Experimental data reported in patent US20230381160A1, “PROPHYLATIC USE OF CALCIUM CHANNEL BLOCKERS IN TUBERCULOSIS” (priority 2020, published 2023).

System: active TB
Assay: Nested case-control study (NHIRD): drug use and risk of incident active TB
Assay type: in vivo, human
Conditions: incidence of active TB
Source text: National Health Insurance (NHI) program of Taiwan is a compulsory single-payer system that enrolls approximately 24 million residents with 99.8% coverage. We conducted a nested case-control study using the National Health Insurance Research Database (NHIRD) approved from the institutional review board of National Taiwan University Hospital. The NHIRD used a systematic approach to randomly select one million people from the enrollees of NHI, which represents the age, sex, and geographical region distribution of the Taiwanese population. The computerized NHIRD includes information on patient demographics, outpatient and inpatient electronic claim records, individual diagnoses by ICD-9 CM codes, operations, and prescribed medications. Detailed information regarding the name of the prescribed drugs, route of administration, quantity, and number of days of supply are also available. The study was approved by the Institutional Review Board at National Taiwan University Hospital (No. 201311043RINB). Patients' consent was waived because this is an electronic database study using anonymous subjects.
The study cohort consisted of all adult patients (≥18 years old) from the NHIRD that were followed longitudinally between January 1999 and December 2011. We used 1999 as pre-enrollment periods. TB was defined as those with any code for TB according to the ICD-9 CM codes (ICD-9 CM codes: 010-018, including all subcategories). All participants in the study cohort were followed and contributed person-time from the first day of 2000 until the earliest of the following end points: first diagnosis of active TB, termination of health insurance coverage, death, or the end of the study period, whichever came first. The year before the year of TB diagnosis was used for the evaluation of the drug exposure. […]
We assessed the covariates from the cohort entry to the year before the index date. Covariates assessed included: demographics, pre-existing chronic diseases, medications used, and proxy indicators for the lifestyle such as alcohol consumption or smoking related illness, and obesity or malnutrition. […]

COC(=O)C1=C(C)NC(C)=C(C(=O)OC)C1c1ccccc1[N+](=O)[O-] [Nifedipine, nifedipine]
IR % (case/person-years) (average daily dose 10 mg): 0% (0/694)
IR % (case/person-years) (average daily dose 20 mg): 0.34% (6/1,755)
IR % (case/person-years) (average daily dose 30 mg): 0.40% (6/1,499)
